Assays:
Type in all cases: in vivo
rice (Oryza sativa) = assay: Test B flooded paddy test, visual plant response rating 0-100; conditions: 250 g ai/ha, Flood, applied to paddy water, evaluated after 13 days
Protocol: (§1) Plant species in the flooded paddy test selected from barnyardgrass (Echinochloa crusgalli), ducksalad (Heteranthera limosa), rice (Oryza sativa), and sedge, umbrella (small-flower umbrella sedge, Cyperus difformis) were grown to the 2-leaf stage for testing. At time of treatment, test pots were flooded to 3 cm above the soil surface, treated by application of test compounds directly to the paddy water, and then maintained at that water depth for the duration of the test. Treated plants and controls were maintained in a greenhouse for 13 days, after which time all species were compared to controls and visually evaluated. […] A dash (-) response means no test result.

[1] = system: barnyardgrass (Echinochloa crusgalli); assay: as above; conditions: 250 g ai/ha, Flood, applied to paddy water, evaluated after 13 days
Protocol: as §1

[2] = system: ducksalad (Heteranthera limosa); assay: as above; conditions: 250 g ai/ha, Flood, applied to paddy water, evaluated after 13 days
Protocol: as §1

[3] = system: sedge, umbrella (small-flower umbrella sedge, Cyperus difformis); assay: as above; conditions: 250 g ai/ha, Flood, applied to paddy water, evaluated after 13 days
Protocol: as §1

[4] = system: blackgrass (Alopecurus myosuroides); assay: Test A postemergence application, visual injury rating 0-100; conditions: 10 days
From the text: (§2) Seeds of plant species selected from barnyardgrass (Echinochloa crus-galli), blackgrass (Alopecurus myosuroides), corn (Zea mays), foxtail, giant (giant foxtail, Setaria faberi), green foxtail (Setaria viridis), goosegrass (Eleusine indica), kochia (Bassia scoparia), oat, wild (wild oat, Avena fatua), palmer (palmer amaranth, palmer pigweed, Amaranthus palmeri), ragweed (common ragweed, Ambrosia artemisiifolia), ryegrass, Italian (italian ryegrass, Lolium multiflorum), soybean (Glycine max) and wheat (Triticum aestivum) were planted into a blend of loam soil and sand and treated preemergence with a directed soil spray using test chemicals formulated in a non-phytotoxic solvent mixture which included a surfactant.
(§3) At the same time, plants selected from these crops and weed species and also galium (catchweed bedstraw, Galium aparine) and horseweed (Erigeron canadensis) were planted in pots containing the same blend of loam soil and sand and treated with postemergence applications of test chemicals formulated in the same manner. Plants ranged in height from 2 to 10 cm and were in the one- to two-leaf stage for the postemergence treatment. Treated plants and untreated controls were maintained in a greenhouse for 10 days, after which time all treated plants were compared to untreated controls and visually evaluated for injury. Plant response ratings, summarized in Table A, are based on a 0 to 100 scale where 0 is no effect and 100 is complete control. A dash (-) response means no test result.

[5] = system: green foxtail (Setaria viridis); assay: as above; conditions: 10 days
From the text: as §2, §3

corn (Zea mays) [6] = assay: as above; conditions: 10 days
From the text: as §2, §3

[7] = system: horseweed (Erigeron canadensis); assay: as above; conditions: 10 days
From the text: as §2, §3

[8] = system: ryegrass, Italian (italian ryegrass, Lolium multiflorum); assay: as above; conditions: 10 days
From the text: as §2, §3

soybean (Glycine max) [9] = assay: as above; conditions: 10 days
From the text: as §2, §3

[10] = system: palmer (palmer amaranth, palmer pigweed, Amaranthus palmeri); assay: as above; conditions: 10 days
From the text: as §2, §3

[11] = system: wheat (Triticum aestivum); assay: as above; conditions: 10 days
From the text: as §2, §3

[12] = system: ragweed (common ragweed, Ambrosia artemisiifolia); assay: as above; conditions: 10 days
From the text: as §2, §3

[13] = system: barnyardgrass (Echinochloa crus-galli); assay: as above; conditions: 10 days
From the text: as §2, §3

kochia (Bassia scoparia) [14] = assay: as above; conditions: 10 days
From the text: as §2, §3

[15] = system: oat, wild (wild oat, Avena fatua); assay: as above; conditions: 10 days
From the text: as §2, §3

[16] = system: blackgrass (Alopecurus myosuroides); assay: Test A preemergence soil spray, visual injury rating 0-100; conditions: 10 days, 0 = no effect, 100 = complete control
From the text: as §2, §3

[17] = system: green foxtail (Setaria viridis); assay: as above; conditions: 10 days, 0 = no effect, 100 = complete control
From the text: as §2, §3

corn (Zea mays) [18] = assay: as above; conditions: 10 days, 0 = no effect, 100 = complete control
From the text: as §2, §3

[19] = system: ryegrass, Italian (italian ryegrass, Lolium multiflorum); assay: as above; conditions: 10 days, 0 = no effect, 100 = complete control
From the text: as §2, §3

soybean (Glycine max) [20] = assay: as above; conditions: 10 days, 0 = no effect, 100 = complete control
From the text: as §2, §3

[21] = system: palmer (palmer amaranth, palmer pigweed, Amaranthus palmeri); assay: as above; conditions: 10 days, 0 = no effect, 100 = complete control
From the text: as §2, §3

[22] = system: wheat (Triticum aestivum); assay: as above; conditions: 10 days, 0 = no effect, 100 = complete control
From the text: as §2, §3

[23] = system: ragweed (common ragweed, Ambrosia artemisiifolia); assay: as above; conditions: 10 days, 0 = no effect, 100 = complete control
From the text: as §2, §3

[24] = system: barnyardgrass (Echinochloa crus-galli); assay: as above; conditions: 10 days, 0 = no effect, 100 = complete control
From the text: as §2, §3

kochia (Bassia scoparia) [25] = assay: as above; conditions: 10 days, 0 = no effect, 100 = complete control
From the text: as §2, §3

[26] = system: oat, wild (wild oat, Avena fatua); assay: as above; conditions: 10 days, 0 = no effect, 100 = complete control
From the text: as §2, §3

[27] = 31 g ai/ha, postemergence, 0 = no effect, 100 = complete control
[28] = Postemergence, 125 g ai/ha, 0 is no effect, 100 is complete control

COC(=O)C1=CC[C@H](NC(=O)C2(C)CN(c3cc(F)cc(F)c3)C(=O)O2)C1 (mixture of isomers) [Compound 37, Methyl (4S)-4-[[[3-(3,5-difluorophenyl)-5-methyl-2-oxo-5-oxazolidinyl]carbonyl]amino]-1-cyclopentene-1-carboxylate]
Plant response rating, Rice (0 to 100 scale, 0 is no effect and 100 is complete control) (rice (Oryza sativa)): 65
Plant response rating, Barnyardgrass (0 to 100 scale, 0 is no effect and 100 is complete control) [1]: 75
Plant response rating, Ducksalad (0 to 100 scale, 0 is no effect and 100 is complete control) [2]: 95
Plant response rating, Sedge, Umbrella (0 to 100 scale, 0 is no effect and 100 is complete control) [3]: 100
Blackgrass plant response rating (0-100) [4, 27]: 80
Blackgrass plant response rating (0 to 100 scale) [4, 28]: 90
Foxtail, Green plant response rating (0-100) [5, 27]: 90
Foxtail, Green plant response rating (0 to 100 scale) [5, 28]: 90
Corn plant response rating (0-100) (corn (Zea mays) [6]; [27]): 100
Corn plant response rating (0 to 100 scale) (corn (Zea mays) [6]; [28]): 100
Horseweed plant response rating (0-100) [7, 27]: 10
Horseweed plant response rating (0 to 100 scale) [7, 28]: 70
Ryegrass, Italian plant response rating (0-100) [8, 27]: 80
Ryegrass, Italian plant response rating (0 to 100 scale) [8, 28]: 90
Soybean plant response rating (0-100) (soybean (Glycine max) [9]; [27]): 70
Soybean plant response rating (0 to 100 scale) (soybean (Glycine max) [9]; [28]): 80
Amaranth, Palmer plant response rating (0-100) [10, 27]: 70
Amaranth, Palmer / Pigweed, Palmer plant response rating (0 to 100 scale) [10, 28]: 90
Wheat plant response rating (0-100) [11, 27]: 90
Wheat plant response rating (0 to 100 scale) [11, 28]: 90
Ragweed plant response rating (0-100) [12, 27]: 20
Ragweed plant response rating (0 to 100 scale) [12, 28]: 50
Barnyardgrass plant response rating (0-100) [13, 27]: 100
Barnyardgrass plant response rating (0 to 100 scale) [13, 28]: 100
Kochia plant response rating (0-100) (kochia (Bassia scoparia) [14]; [27]): 80
Kochia plant response rating (0 to 100 scale) (kochia (Bassia scoparia) [14]; [28]): 80
Oat, Wild plant response rating (0-100) [15, 27]: 90
Oat, Wild plant response rating (0 to 100 scale) [15, 28]: 90
Blackgrass plant response rating (0-100) ([16]; 31 g ai/ha): 0
Blackgrass plant response rating (0 to 100 scale) ([16]; 125 g ai/ha): 20
Foxtail, Green plant response rating (0-100) ([17]; 31 g ai/ha): 0
Foxtail, Green plant response rating (0 to 100 scale) ([17]; 125 g ai/ha): 90
Corn plant response rating (0-100) (corn (Zea mays) [18]; 31 g ai/ha): 10
Corn plant response rating (0 to 100 scale) (corn (Zea mays) [18]; 125 g ai/ha): 80
Ryegrass, Italian plant response rating (0-100) ([19]; 31 g ai/ha): 70
Ryegrass, Italian plant response rating (0 to 100 scale) ([19]; 125 g ai/ha): 90
Soybean plant response rating (0-100) (soybean (Glycine max) [20]; 31 g ai/ha): 10
Soybean plant response rating (0 to 100 scale) (soybean (Glycine max) [20]; 125 g ai/ha): 70
Amaranth, Palmer plant response rating (0-100) ([21]; 31 g ai/ha): 10
Amaranth, Palmer plant response rating (0 to 100 scale) ([21]; 125 g ai/ha): 80
Wheat plant response rating (0-100) ([22]; 31 g ai/ha): 40
Wheat plant response rating (0 to 100 scale) ([22]; 125 g ai/ha): 80
Ragweed plant response rating (0-100) ([23]; 31 g ai/ha): 60
Ragweed plant response rating (0 to 100 scale) ([23]; 125 g ai/ha): 0
Barnyardgrass plant response rating (0-100) ([24]; 31 g ai/ha): 30
Barnyardgrass plant response rating (0 to 100 scale) ([24]; 125 g ai/ha): 90
Kochia plant response rating (0-100) (kochia (Bassia scoparia) [25]; 31 g ai/ha): 0
Kochia plant response rating (0 to 100 scale) (kochia (Bassia scoparia) [25]; 125 g ai/ha): 20
Oat, Wild plant response rating (0-100) ([26]; 31 g ai/ha): 20
Oat, Wild plant response rating (0 to 100 scale) ([26]; 125 g ai/ha): 60
